Measured values as given in PubChem BioAssay (NCI).
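Where inhibition never reached the appropriate level, the endpoint shown equals the highest concentration tested. Otherwise, values were interpolated linearly from a five-concentration, 48-hour dose response in 96-well plates. TGI denotes the concentration required for complete inhibition of growth.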

Key:
Experiment in all cases: NCI-60 cell line screen, 48 h
[1] = tested on: HOP-62 NSCLC
[2] = tested on: MDA-N
[3] = tested on: IGROV1 ovarian
[4] = tested on: SK-MEL-5 melanoma
[5] = tested on: HT29 colon
[6] = tested on: SNB-19 CNS
[7] = tested on: M14 melanoma
[8] = tested on: CCRF-CEM leukemia
[9] = tested on: 786-0 renal
[10] = tested on: SF-295 CNS
[11] = tested on: MDA-MB-435
[12] = tested on: SW-620 colon
[13] = tested on: EKVX NSCLC
[14] = tested on: MALME-3M melanoma
[15] = tested on: HCC-2998 colon
[16] = tested on: SF-268 CNS
[17] = tested on: DU-145 prostate
[18] = tested on: NCI-H23 lung
[19] = tested on: KM12 colon
[20] = tested on: SK-MEL-28 melanoma
[21] = tested on: SK-OV-3 ovarian
[22] = tested on: OVCAR-8 ovarian
[23] = tested on: SR leukemia
[24] = tested on: HCT-116 colon
[25] = tested on: SN12C renal
[26] = tested on: MCF7 breast
[27] = tested on: TK-10 renal
[28] = tested on: SK-MEL-2 melanoma
[29] = tested on: NCI-H460 lung
[30] = tested on: HOP-92 NSCLC
[31] = tested on: BT-549 breast
[32] = tested on: UACC-62 melanoma
[33] = tested on: HCT-15 colon
[34] = tested on: OVCAR-3 ovarian
[35] = tested on: A498 renal
[36] = tested on: RXF 393 renal
[37] = tested on: UACC-257 melanoma
[38] = tested on: OVCAR-4 ovarian
[39] = tested on: U251 CNS
[40] = tested on: T-47D breast
[41] = tested on: COLO 205 colon
[42] = tested on: OVCAR-5 ovarian
[43] = tested on: MOLT-4 leukemia
[44] = tested on: NCI-H226 lung
[45] = tested on: NCI/ADR-RES ovarian
[46] = tested on: RPMI-8226 leukemia
[47] = tested on: SF-539 CNS
[48] = tested on: MDA-MB-231 breast
[49] = tested on: A549 NSCLC
[50] = tested on: ACHN renal
[51] = tested on: HL-60(TB) leukemia
[52] = tested on: CAKI-1 renal
[53] = tested on: LOX IMVI melanoma
[54] = tested on: UO-31 renal
[55] = tested on: PC-3 prostate
[56] = tested on: K-562 leukemia
[57] = tested on: NCI-H522 lung
[58] = tested on: HS 578T breast
[59] = tested on: DMS 114 small cell lung
[60] = tested on: DLD-1 colon
[61] = tested on: DMS 273 small cell lung
[62] = tested on: SNB-75 CNS
[63] = tested on: KM20L2 colon
[64] = tested on: LXFL 529 NSCLC
[65] = tested on: SNB-78 CNS
[66] = tested on: M19-MEL melanoma

Structure (SMILES): Cc1ccc(S(=O)(=O)NN=C2CCCCCCCCCCC2)cc1
- TGI [1]: > 100 µM
- TGI [2]: > 100 µM
- TGI [3]: > 100 µM
- TGI [4]: > 100 µM
- TGI [5]: > 100 µM
- TGI [6]: > 100 µM
- TGI [7]: > 100 µM
- TGI [8]: > 100 µM
- TGI [9]: > 100 µM
- TGI [10]: > 100 µM
- TGI [11]: > 100 µM
- TGI [12]: > 100 µM
- TGI [13]: > 100 µM
- TGI [14]: > 100 µM
- TGI [15]: > 100 µM
- TGI [16]: > 100 µM
- TGI [17]: > 100 µM
- TGI [18]: > 100 µM
- TGI [19]: > 100 µM
- TGI [20]: > 100 µM
- TGI [21]: > 100 µM
- TGI [22]: > 100 µM
- TGI [23]: > 100 µM
- TGI [24]: > 100 µM
- TGI [25]: > 100 µM
- TGI [26]: > 100 µM
- TGI [27]: > 100 µM
- TGI [28]: > 100 µM
- TGI [29]: > 100 µM
- TGI [30]: > 100 µM
- TGI [31]: > 100 µM
- TGI [32]: > 100 µM
- TGI [33]: > 100 µM
- TGI [34]: > 100 µM
- TGI [35]: > 100 µM
- TGI [36]: > 100 µM
- TGI [37]: > 100 µM
- TGI [38]: > 100 µM
- TGI [39]: > 100 µM
- TGI [40]: > 100 µM
- TGI [41]: > 100 µM
- TGI [42]: > 100 µM
- TGI [43]: > 100 µM
- TGI [44]: > 100 µM
- TGI [45]: > 100 µM
- TGI [46]: > 100 µM
- TGI [47]: > 100 µM
- TGI [48]: > 100 µM
- TGI [49]: > 100 µM
- TGI [50]: > 100 µM
- TGI [51]: > 100 µM
- TGI [52]: > 100 µM
- TGI [53]: > 100 µM
- TGI [54]: > 100 µM
- TGI [55]: > 100 µM
- TGI [56]: > 100 µM
- TGI [57]: > 100 µM
- TGI [58]: > 100 µM

Structure (SMILES): NC(=O)N1N=C2c3ccccc3CC[C@@H]2C1c1ccccc1 (stereo partly drawn)
- TGI [59]: > 100 µM
- TGI [1]: > 100 µM
- TGI [3]: > 100 µM
- TGI [4]: > 100 µM
- TGI [5]: > 100 µM
- TGI [6]: > 100 µM
- TGI [7]: > 100 µM
- TGI [8]: > 100 µM
- TGI [9]: > 100 µM
- TGI [10]: > 100 µM
- TGI [12]: > 100 µM
- TGI [13]: > 100 µM
- TGI [60]: > 100 µM
- TGI [14]: > 100 µM
- TGI [15]: > 100 µM
- TGI [16]: > 100 µM
- TGI [18]: > 100 µM
- TGI [19]: > 100 µM
- TGI [61]: > 100 µM
- TGI [20]: > 100 µM
- TGI [21]: > 100 µM
- TGI [62]: > 100 µM
- TGI [22]: > 100 µM
- TGI [24]: > 100 µM
- TGI [25]: > 100 µM
- TGI [63]: > 100 µM
- TGI [27]: > 100 µM
- TGI [28]: > 100 µM
- TGI [29]: > 100 µM
- TGI [32]: > 100 µM
- TGI [33]: > 100 µM
- TGI [64]: > 100 µM
- TGI [34]: > 100 µM
- TGI [35]: > 100 µM
- TGI [36]: > 100 µM
- TGI [65]: > 100 µM
- TGI [37]: > 100 µM
- TGI [39]: > 100 µM
- TGI [66]: > 100 µM
- TGI [41]: > 100 µM
- TGI [42]: > 100 µM
- TGI [43]: > 100 µM
- TGI [44]: > 100 µM
- TGI [46]: > 100 µM
- TGI [47]: > 100 µM
- TGI [49]: > 100 µM
- TGI [50]: > 100 µM
- TGI [51]: > 100 µM
- TGI [52]: > 100 µM
- TGI [53]: > 100 µM
- TGI [54]: > 100 µM
- TGI [56]: > 100 µM
- TGI [57]: > 100 µM

Structure (SMILES): COC(=O)C1(Cc2ccc3c(c2)CCC3)Cc2ccc3c(c2C1O)CCC3 (stereo not drawn)
- TGI [1]: 28 µM
- TGI [2]: 29.8 µM
- TGI [4]: 22.1 µM
- TGI [5]: 31.6 µM
- TGI [8]: > 100 µM
- TGI [9]: 28.6 µM
- TGI [10]: 42.4 µM
- TGI [11]: 27.5 µM
- TGI [12]: 30.2 µM
- TGI [13]: 32 µM
- TGI [14]: 27.3 µM
- TGI [15]: 30.9 µM
- TGI [16]: 69.8 µM
- TGI [17]: 46.4 µM
- TGI [19]: 38.9 µM
- TGI [20]: 32.6 µM
- TGI [21]: 51.8 µM
- TGI [62]: > 100 µM
- TGI [22]: 39.1 µM
- TGI [23]: > 100 µM
- TGI [24]: 28.1 µM
- TGI [25]: 28.5 µM
- TGI [26]: 26.9 µM
- TGI [27]: 54.8 µM
- TGI [29]: 54.4 µM
- TGI [30]: 21.9 µM
- TGI [31]: 29.5 µM
- TGI [32]: 32.9 µM
- TGI [34]: 27.7 µM
- TGI [35]: 25.1 µM
- TGI [36]: 31 µM
- TGI [37]: 26.1 µM
- TGI [38]: 27.7 µM
- TGI [39]: 30.6 µM
- TGI [40]: 33 µM
- TGI [41]: 25.6 µM
- TGI [43]: > 100 µM
- TGI [44]: 45 µM
- TGI [45]: 35.9 µM
- TGI [46]: 59.4 µM
- TGI [47]: 47.4 µM
- TGI [48]: 29.4 µM
- TGI [49]: 37.3 µM
- TGI [50]: 26.7 µM
- TGI [51]: > 100 µM
- TGI [52]: 29.4 µM
- TGI [53]: 26.2 µM
- TGI [54]: 22.5 µM
- TGI [55]: 32.3 µM
- TGI [56]: > 100 µM
- TGI [57]: 25.6 µM
- TGI [58]: 42.1 µM
